Results reported in paper PMC9687798, “Atypical Substrates of the Organic Cation Transporter 1” (Biomolecules, 2022).

Experiments:
[1] = tested on: empty vector-transfected HEK cells; experiment: Concentration-dependent uptake into empty vector-transfected HEK293 cells; type: cell-based, human; details: uptake into empty vector-transfected cells
Method: (§1) The transport experiments were performed using HEK293 cells that overexpress human OCT1*1 (wild-type), mutant human OCT1 D474N, variant human OCT1*2 (M420del) and OCT1*3 (R61C), wild-type human OCT2, and OCT3 after stable transfection. The wild-type cell lines of OCT1 and OCT2, as well as the variant cell lines OCT1*2 and *3, were generated using the Flp-In system (Thermo Fisher Scientific, Darmstadt, Germany) as described in previous publications. The cell line overexpressing OCT3 was a kind gift from Dr. Koepsell and Dr. Gorbulev (University of Würzburg, Germany). Cells transfected with the empty pcDNA5/FRT vector were used for the transport experiments as a control cell line. All cells were cultured approximately up to passage 30.
(§2) Forty-eight hours before the transport experiments, 600,000 cells were plated on 12-well plates pre-coated with poly-D-lysine and incubated at 37 °C with 5% CO2. The prepared 12-well plate with cells was positioned on a heating plate pre-warmed to 37 °C. After removing the medium, the cells were washed with 37 °C HBSS+ (10 mM HEPES in Hank’s balanced salt solution, pH 7.4). Then, one pre-defined concentration of a substrate was added to each well. The incubation period was stopped by adding 2 mL of 4 °C HBSS+ and removing the cells from the heating plate. The cells were washed twice with 4 °C HBSS+. For cell lysis, the cells were incubated for 15 min with 500 µL of 80% acetonitrile (LGC Standards, Wesel, Germany), which contained a respective internal standard (Table 1).
(§3) For time-dependent transport, the cells were incubated with 1 µM of the substance for 15 to 240 s to determine the linear uptake range ≥ 15 s. For concentration-dependent transport, the cells were incubated with defined substrate concentrations (0.1, 1, 10, 30, 100, 300, 600, 1000 µM) for the respective pre-defined incubation times. […]; 100 µM) and pre-defined incubation times. The uptake by a transporter was normalised to the uptake by empty vector-transfected cells. […] The results of transport experiments were normalized to the total protein concentration per well. Total protein quantification was performed using a bicinchoninic acid assay with bovine serum albumin as standard.
(§4) The ratios of cellular uptake were calculated by dividing the total uptake of transporter-overexpressing cells by the total uptake into empty vector transfected cells. The concentration-dependent cellular net uptake was used for analysis of transport kinetics by subtracting for each substrate concentration the uptake of empty vector-transfected cells from the uptake of transporter-overexpressing cells. The transport kinetic parameters Vmax and KM were determined with non-linear regression by using the Michaelis–Menten equation for net uptake data and by using the Michaelis–Menten equation extended with a linear term for total uptake data (GraphPad Prism 5.01, GraphPad software, LA Jolla, CA, USA). The intrinsic clearance Clint was expressed with the ratio of Vmax and KM.

[2] = as above; type: cell-based, human; details: human, empty vector (pcDNA5/FRT)-transfected HEK293 cells, pH 7.4; empty vector-transfected HEK cells; read-out: intrinsic clearance
Method: as §1, §2, §3, §4

microsomal CLint [2]: 54.4 µL/min/mg
SMILES: N[C@@H](Cc1ccc(O)c(O)c1)C(=O)O [Levodopa, levodopa]
Km [1]: 380 µM
Vmax [1]: 20,681 pmol/mg protein/min
